Experimental findings from patent US10196357B2, “Biaryl compositions and methods for modulating a kinase cascade” (Athenex, Inc., priority 2007, dated 2019) are described below.

One test deals with FAK Tyr 925. Nature of the test: intracellular phosphorylation, FAK Tyr 925. The test is classed as cell-based. The following applies: whole cells. The protocol:
(§1) HT29 (colon cancer) and c-Src527F/NIH-3T3 (Src transformed) cell lines were treated with KX2-391 or with AstraZeneca's ATP competitive Src inhibitor AZ28. AZ28 serves as a positive comparator to show what a validated Src inhibitor should do in these assays. After treatment with compound, cells were lysed, subjected to PAGE and probed with a battery of antibodies. […] In addition, off-target protein phosphorylation was also investigated. Further, induction of apoptosis was evaluated via Caspase 3 cleavage. Multiple doses of each compound were tested because the trends in response to increasing drug concentration are the most reliable indicator of activity.
(§2) The same range of multiples of the GI50 for AZ28 in these two cell lines was run as a comparison.
KX2-391 and AZ28 inhibited Src transphosphorylation.

Another test has as its target MAPK2(h) (Homo sapiens, UniProt P28482). Nature of the test: isolated kinase activity, MAPK2. Particulars: compound @ 10 μM. The test is classed as biochemical. The source says: (§3) Table 8 illustrates percent activity of isolated kinases in the presence of the AstraZeneca ATP-competitive inhibitor (KX2-328, AZ-28) or KX2-391 relative to control (untreated) isolated kinases.

Another test concerns the target IR(h) (Homo sapiens, UniProt P06213). Nature of the test: isolated kinase activity, IR. The test is classed as biochemical. The following applies: compound @ 10 μM.
Description: as §3

For a further test, the target named is Abl(h) (Homo sapiens, UniProt P00519). Nature of the test: isolated kinase activity, Abl. The following applies: compound @ 10 μM. Format: biochemical.
Sequence of Abl(h) (P00519 whole entry): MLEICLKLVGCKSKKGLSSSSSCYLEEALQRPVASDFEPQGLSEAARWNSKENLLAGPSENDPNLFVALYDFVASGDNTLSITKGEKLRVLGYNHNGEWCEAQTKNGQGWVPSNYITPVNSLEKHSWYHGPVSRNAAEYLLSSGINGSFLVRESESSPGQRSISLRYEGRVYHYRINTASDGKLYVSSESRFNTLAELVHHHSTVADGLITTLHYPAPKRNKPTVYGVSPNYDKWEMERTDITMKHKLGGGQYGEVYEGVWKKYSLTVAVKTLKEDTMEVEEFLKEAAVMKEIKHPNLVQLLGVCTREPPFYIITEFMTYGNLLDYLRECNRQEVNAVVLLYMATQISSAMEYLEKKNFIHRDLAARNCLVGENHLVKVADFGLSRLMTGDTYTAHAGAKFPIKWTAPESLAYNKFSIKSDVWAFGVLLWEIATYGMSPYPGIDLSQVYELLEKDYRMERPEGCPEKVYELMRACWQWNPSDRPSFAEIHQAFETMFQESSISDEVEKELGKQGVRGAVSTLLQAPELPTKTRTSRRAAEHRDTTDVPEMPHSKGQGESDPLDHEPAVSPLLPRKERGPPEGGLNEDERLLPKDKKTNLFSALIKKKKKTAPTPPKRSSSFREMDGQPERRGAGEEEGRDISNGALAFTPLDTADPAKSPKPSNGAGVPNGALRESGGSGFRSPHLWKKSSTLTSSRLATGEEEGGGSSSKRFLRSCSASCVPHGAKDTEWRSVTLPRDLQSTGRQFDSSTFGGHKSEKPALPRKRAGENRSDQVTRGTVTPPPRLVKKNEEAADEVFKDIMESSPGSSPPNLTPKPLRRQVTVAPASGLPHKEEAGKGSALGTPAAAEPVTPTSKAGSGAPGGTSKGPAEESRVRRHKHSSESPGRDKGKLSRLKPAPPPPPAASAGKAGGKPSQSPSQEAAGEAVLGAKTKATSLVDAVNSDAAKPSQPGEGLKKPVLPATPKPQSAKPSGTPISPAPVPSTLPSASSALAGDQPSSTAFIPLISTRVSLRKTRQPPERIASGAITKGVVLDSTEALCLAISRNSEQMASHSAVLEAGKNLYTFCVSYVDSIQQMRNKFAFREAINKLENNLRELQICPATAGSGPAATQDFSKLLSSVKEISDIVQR
Description: as §3

A further test concerns the target PKCα(h) (Homo sapiens, UniProt P17252). Nature of the test: isolated kinase activity, PKCα. Format: biochemical. Particulars: compound @ 10 μM.
Description: as §3

The next test addresses FGFR2(h) (Homo sapiens, UniProt P21802). Nature of the test: isolated kinase activity, FGFR2. The test is classed as biochemical. The following applies: compound @ 10 μM.
Description: as §3

The subject of a further test is Paxillin Y-31. Nature of the test: intracellular phosphorylation, Paxillin Y-31. The test is classed as cell-based. The following applies: c-Src527F/NIH-3T3 cells. The protocol:
as §1, §2

In a further test the target is Yes(h) (Homo sapiens, UniProt P07947). Kind of test: isolated kinase activity, Yes. The test is classed as biochemical. Particulars: compound @ 10 μM.
Sequence of Yes(h) (P07947 whole entry): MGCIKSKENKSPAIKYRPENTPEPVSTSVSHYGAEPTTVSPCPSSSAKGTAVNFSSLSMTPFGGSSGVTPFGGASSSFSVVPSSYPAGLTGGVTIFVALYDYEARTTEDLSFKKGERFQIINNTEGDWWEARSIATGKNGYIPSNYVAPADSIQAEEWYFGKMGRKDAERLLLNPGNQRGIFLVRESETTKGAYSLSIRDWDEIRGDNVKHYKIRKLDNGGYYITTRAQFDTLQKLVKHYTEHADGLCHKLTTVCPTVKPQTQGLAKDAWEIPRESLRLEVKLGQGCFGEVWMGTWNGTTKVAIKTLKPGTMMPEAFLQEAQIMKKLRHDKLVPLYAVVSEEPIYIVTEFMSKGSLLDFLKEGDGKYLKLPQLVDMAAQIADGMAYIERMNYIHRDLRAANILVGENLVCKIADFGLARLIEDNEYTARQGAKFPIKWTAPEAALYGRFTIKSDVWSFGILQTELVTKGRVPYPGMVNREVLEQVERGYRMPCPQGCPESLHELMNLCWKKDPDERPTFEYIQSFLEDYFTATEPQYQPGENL
Description: as §3

The next test addresses EGFR(h) (Homo sapiens, UniProt P00533). Nature of the test: isolated kinase activity, EGFR. Format: biochemical. Particulars: compound @ 10 μM.
Description: as §3

The next test addresses Pyk2(h) (Homo sapiens, UniProt Q14289). Kind of test: isolated kinase activity, Pyk2. Format: biochemical. Particulars: compound @ 10 μM.
Description: as §3

The target in a further test is Lyn(h) (Homo sapiens, UniProt P07948). Kind of test: isolated kinase activity, Lyn. Format: biochemical. Particulars: compound @ 10 μM.
Sequence of Lyn(h) (P07948 whole entry): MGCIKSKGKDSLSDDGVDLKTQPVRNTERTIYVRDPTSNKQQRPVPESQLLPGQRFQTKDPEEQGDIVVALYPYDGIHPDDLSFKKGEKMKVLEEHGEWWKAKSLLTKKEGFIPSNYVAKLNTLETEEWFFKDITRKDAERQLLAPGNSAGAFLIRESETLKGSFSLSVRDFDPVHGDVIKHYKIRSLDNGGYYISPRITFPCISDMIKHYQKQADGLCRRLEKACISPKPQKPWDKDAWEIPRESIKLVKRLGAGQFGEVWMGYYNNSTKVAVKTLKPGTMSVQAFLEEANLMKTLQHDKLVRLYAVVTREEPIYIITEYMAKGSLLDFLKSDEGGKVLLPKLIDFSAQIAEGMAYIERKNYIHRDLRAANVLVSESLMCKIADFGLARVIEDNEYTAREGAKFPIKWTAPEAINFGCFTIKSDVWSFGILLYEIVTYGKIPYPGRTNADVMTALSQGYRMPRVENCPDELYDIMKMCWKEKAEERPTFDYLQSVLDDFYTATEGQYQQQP
Description: as §3

Test [1] deals with PC3-MM2 prostate cancer cells. Nature of the test: orthotopic prostate model for in vivo metastases. On the set-up: species or system Nu/Nu mice. The protocol: Nu/Nu mice (8-12 weeks of age) were injected with PC3-MM2 prostate cancer cells into the prostate as described previously in Pettaway et al., Clin Cancer Res 1996, 2:1627-1636, hereby incorporated herein by reference in its entirety. […] All mice were sacrificed by cervical dislocation on about day 42. Tumor volume (measured by caliper), weight, and incidence of regional (celiac or para-aortal) lymph node metastases were recorded.

A further test deals with U87. Kind of test: brain tumor cell growth inhibition, U87. Format: cell-based, Human. The following applies: U87, glioblastoma; astrocytoma; read-out: IC50 (title: GI50).
Test [2] has as its system HT29 (human colon cancer). Particulars: KXO1 2.0 and 4 mg/kg bid vs Dasatinib 25 then 15 mg/kg bid, 28 days.
Another test concerns 769-P. Kind of test: renal tumor cell growth inhibition, 769-P. Format: cell-based, Human. Particulars: renal cell adenocarcinoma. The protocol: (§4) These GI50s were determined using standard tumor growth inhibition assays, similar to those described in detail in this Example 7.
Another test deals with SW1088. Nature of the test: brain tumor cell growth inhibition, SW1088. Format: cell-based, Human. Particulars: SW1088, astrocytoma; read-out: IC50 (title: GI50).
In a further test the test system is SK-N-FI. Nature of the test: brain tumor cell growth inhibition, SK-N-FI. The test is classed as cell-based, Human. Particulars: neuroblastoma, read-out: IC50 (title: GI50).
The test system of test [3] is EGFR tyrosine kinase autophosphorylation. Kind of test: EGFR tyrosine kinase autophosphorylation in cells. The following applies: tumor cells, FIG. 9, EGF Y845. Format: cell-based. The protocol:
as §1, §2
This site is not a direct Src phosphorylation site.

The next test relates to GL261. Kind of test: brain tumor cell growth inhibition, GL261. Format: cell-based. The following applies: GL261, mouse glioblastoma; read-out: IC50 (title: GI50).
Test [4] has as its system Jurkat (Adult T cell leukemia). Nature of the test: growth inhibition, Jurkat. The test is classed as cell-based, Human.
Test [5] concerns K562R (Gleevec resistant CML). Nature of the test: growth inhibition, K562R. The test is classed as cell-based, Human.
The next test relates to Ba/F3 (IL-3 induced). Nature of the test: MTT growth inhibition, Ba/F3 + IL-3. Format: cell-based. The following applies: 96 hrs, read-out: GI50.
In a further test the test system is Caki-2. Kind of test: renal tumor cell growth inhibition, Caki-2. The test is classed as cell-based, Human. The following applies: Caki-2, clear cell carcinoma. The protocol:
as §4

Another test deals with 786-O. Nature of the test: renal tumor cell growth inhibition, 786-O. The test is classed as cell-based, Human. The following applies: renal cell adenocarcinoma. The protocol:
as §4

For test [6], the system named is Ba/F3 + BCR-Abl E225K mutant. Kind of test: MTT growth inhibition, Ba/F3 + BCR-Abl E225K. The test is classed as cell-based. Particulars: 96 hrs. The source says: Cultures of Ba/F3 cells were also transfected to express wild-type (WT) Bcr-Abl, E255K mutation of Bcr-Abl, or T315I mutation of Bcr-Abl and cultured in 96-well plates in complete media without IL-3. The Ba/F3 cell line is rendered Gleevec resistant when the mutation in the Bcr/Abl tyrosine kinase […] is present. […] All assays are in triplicate.

The test system of another test is JAK1 Y1022/1023. Kind of test: whole cell phosphorylation, JAK1. Format: cell-based. Particulars: whole cells.
For the next test, the system named is Daoy. Kind of test: brain tumor cell growth inhibition, Daoy. The test is classed as cell-based, Human. The following applies: desmoplastic cerebellar medulloblastoma, read-out: IC50 (title: GI50).
The subject of test [7] is Src-Y416 autophosphorylation. Nature of the test: intracellular phosphorylation, Src autophosphorylation. Format: cell-based. Particulars: HT29 and c-Src527F/NIH-3T3 cells, 0.2×-25× GI50. The protocol: as §1, §2
Another test relates to LN-18. Nature of the test: brain tumor cell growth inhibition, LN-18. The test is classed as cell-based, Human. Particulars: LN-18, glioblastoma; glioma; read-out: IC50 (title: GI50).

Sequence of FGFR2(h) (P21802 22-821): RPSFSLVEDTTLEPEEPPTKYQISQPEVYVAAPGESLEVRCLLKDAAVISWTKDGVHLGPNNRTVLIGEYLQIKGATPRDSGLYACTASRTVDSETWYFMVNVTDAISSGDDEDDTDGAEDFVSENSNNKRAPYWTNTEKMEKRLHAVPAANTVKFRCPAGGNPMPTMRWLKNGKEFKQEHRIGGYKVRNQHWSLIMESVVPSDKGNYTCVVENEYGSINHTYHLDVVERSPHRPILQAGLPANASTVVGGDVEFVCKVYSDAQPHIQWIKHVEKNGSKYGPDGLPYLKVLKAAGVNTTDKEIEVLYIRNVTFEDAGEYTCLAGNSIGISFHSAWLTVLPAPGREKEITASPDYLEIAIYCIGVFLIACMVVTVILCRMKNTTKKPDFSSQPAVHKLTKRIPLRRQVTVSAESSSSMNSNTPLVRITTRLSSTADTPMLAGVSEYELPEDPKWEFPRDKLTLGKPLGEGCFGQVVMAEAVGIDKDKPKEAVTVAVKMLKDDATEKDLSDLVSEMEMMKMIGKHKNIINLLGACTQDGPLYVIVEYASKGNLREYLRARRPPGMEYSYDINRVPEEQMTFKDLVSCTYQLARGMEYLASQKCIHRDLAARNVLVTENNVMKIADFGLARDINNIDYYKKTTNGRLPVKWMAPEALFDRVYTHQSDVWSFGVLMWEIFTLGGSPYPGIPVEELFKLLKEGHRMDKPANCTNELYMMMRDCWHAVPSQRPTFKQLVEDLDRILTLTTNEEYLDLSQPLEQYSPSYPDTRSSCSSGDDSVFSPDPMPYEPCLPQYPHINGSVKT
Sequence of IR(h) (P06213 28-1382): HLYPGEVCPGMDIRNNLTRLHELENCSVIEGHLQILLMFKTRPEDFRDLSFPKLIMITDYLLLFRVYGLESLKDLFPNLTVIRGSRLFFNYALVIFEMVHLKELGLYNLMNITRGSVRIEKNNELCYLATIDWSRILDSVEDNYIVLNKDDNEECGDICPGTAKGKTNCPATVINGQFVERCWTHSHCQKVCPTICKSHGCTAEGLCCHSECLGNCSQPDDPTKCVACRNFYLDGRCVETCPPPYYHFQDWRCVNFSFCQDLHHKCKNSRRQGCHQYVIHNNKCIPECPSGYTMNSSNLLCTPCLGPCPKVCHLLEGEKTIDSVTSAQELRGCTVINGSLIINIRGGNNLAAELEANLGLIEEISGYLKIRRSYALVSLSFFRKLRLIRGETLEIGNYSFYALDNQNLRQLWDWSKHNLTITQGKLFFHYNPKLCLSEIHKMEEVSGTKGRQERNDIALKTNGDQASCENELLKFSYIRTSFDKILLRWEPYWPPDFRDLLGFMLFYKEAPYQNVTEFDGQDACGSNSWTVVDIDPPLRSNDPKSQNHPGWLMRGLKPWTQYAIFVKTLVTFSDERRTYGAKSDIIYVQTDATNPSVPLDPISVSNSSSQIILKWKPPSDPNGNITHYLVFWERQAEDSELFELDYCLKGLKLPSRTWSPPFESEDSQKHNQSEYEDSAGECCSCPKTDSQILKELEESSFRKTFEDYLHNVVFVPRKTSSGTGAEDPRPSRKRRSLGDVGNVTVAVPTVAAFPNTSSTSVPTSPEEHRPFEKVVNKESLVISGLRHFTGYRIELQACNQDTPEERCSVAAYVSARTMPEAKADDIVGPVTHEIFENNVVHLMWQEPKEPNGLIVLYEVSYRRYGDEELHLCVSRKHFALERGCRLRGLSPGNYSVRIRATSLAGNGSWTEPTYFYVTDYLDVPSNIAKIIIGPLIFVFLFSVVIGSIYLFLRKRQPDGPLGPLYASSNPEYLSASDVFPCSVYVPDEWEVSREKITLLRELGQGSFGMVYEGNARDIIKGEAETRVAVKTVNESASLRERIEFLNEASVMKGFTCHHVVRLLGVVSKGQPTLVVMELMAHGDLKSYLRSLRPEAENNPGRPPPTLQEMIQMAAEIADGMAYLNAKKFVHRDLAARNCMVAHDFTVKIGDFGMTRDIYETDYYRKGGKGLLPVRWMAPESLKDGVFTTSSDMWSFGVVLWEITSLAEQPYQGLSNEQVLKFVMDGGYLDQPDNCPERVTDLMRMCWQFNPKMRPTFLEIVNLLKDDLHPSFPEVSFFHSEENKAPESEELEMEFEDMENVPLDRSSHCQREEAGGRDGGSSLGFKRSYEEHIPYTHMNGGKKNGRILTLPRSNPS

On to `O=C(Cc1ccc(-c2ccc(OCCN3CCOCC3)cc2)cn1)NCc1ccccc1` [KX2-391], for which the “phosphorylation of FAK Tyr 925 (Src transphosphorylation)” value in the test on FAK Tyr 925 was “inhibited”. Besides, the “percent activity of isolated kinase relative to control” value on MAPK2(h) was found to be 112%; on IR(h) it was 112%; at Abl(h) it was 120%; on PKCα(h), 111%; on FGFR2(h), 94%; at Yes(h), 92%. The “percent activity of isolated kinase relative to control” value was 134% on EGFR(h), 97% at Pyk2(h) and 113% on Lyn(h). For the same compound, in the test on Paxillin Y-31, the “phosphorylation of Paxillin Y-31 (Src transphosphorylation)” value is “inhibited”.
As a reminder, the IC50 is the midpoint of a concentration-inhibition curve. What is called GI50 is the concentration that inhibits growth by half. On to `O=C(Cc1ccc(-c2ccc(OCCN3CCOCC3)cc2)cn1)NCc1ccccc1` [KXO1], for which the LN metastasis is 4/5 in test [1] (5.0 mg/kg/day oral gavage) and 2/5 in test [1] (10.0 mg/kg/day oral gavage). Further, the Tumor incidence in test [1] (5.0 mg/kg/day oral gavage) and in test [1] (10.0 mg/kg/day oral gavage) was 5/6 in each case. The results for the “Tumor weight (g) Median” value in test [1] (5.0 mg/kg/day oral gavage) and in test [1] (10.0 mg/kg/day oral gavage) were 1.16 g and 0.35 g, respectively. Further, the IC50 turned out to be 33.1 nM in the test on U87; 76.1 nM in the test with SW1088; 1.7 nM in the test on SK-N-FI; 13.7 nM in the test on GL261; 13.6 nM in the test on Daoy; 14.5 nM with LN-18. The “oral potency in staged HT29 mouse xenografts” value in test [2] was “higher oral potency”. The concentration for 50% growth inhibition (GI50) in the test on 769-P was found to be 45 nM; in [4], 10 nM; in test [5], 0.64 nM; in the test on Ba/F3 (IL-3 induced) it was 3.5 nM; with Caki-2, 39.2 nM; with 786-O, 378 nM. Also, the GI50 in test [6] stood at 80 nM. Besides, the “EGFR tyrosine kinase autophosphorylation” value was “not inhibited” in test [3] and “less active” in test [3] (listed as KX-391). In the test with JAK1 Y1022/1023, the “phosphorylation of JAK1 Y1022/1023” value is given as “not inhibited”. Moreover, the Src-Y416 autophosphorylation result in test [7] was “potent inhibitor”.
